This note sets out measurements from PubChem BioAssay AID463229 (Broad Institute, 2010).

Molecules are shown by their SMILES. Calls of active or inactive are those of the source.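 Rule for the calls: active = compounds raising the signal whose fitted half-maximal concentration is at or below their top tested dose (cut at about 25 µM in these data); inconclusive = flat fit at 30 to 70% activity, or a poor fit; inactive = the rest.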 Some results are limits rather than exact numbers.

In the test the test system is INS-1E rat beta cells, no cytokines, CellTiter-Glo ATP, 48 h. Briefly: ATP level change in INS-1E without cytokines, dose response, counter-screen for beta-cell apoptosis protection project, INS-1E rat cells, ATP luminescence, cherry pick (AID 463229).
Regarding `CC1(C)CC(N2CCN(Cc3ccccc3)CC2)=CC(=[N+]2CCCCC2)C1`, the concentration at half-maximal activity (AC50) was 2.55 µM. To `COc1cnc(-c2ccccn2)nc1Sc1ccccc1Cl` belongs 23.1 µM. For the compound `C=CC[n+]1c(-c2ccc(OCC)cc2)csc1NNC(=O)Nc1ccccc1`, the half-maximal activity concentration (AC50) was 12.1 µM.

As to `COc1ccc2cc1Oc1ccc(cc1)C[C@H]1c3c(cc(OC)c4c3Oc3c(ccc5c3[C@H](C2)N(C)CC5)O4)CCN1C`, the AC50 is 7.68 µM. With `O=C(N/N=C/c1ccc([N+](=O)[O-])o1)c1ccc(O)cc1` the figure was 7.45 µM. Consider `COc1ccc(CC(=O)Nc2ccncc2Cl)cc1`, for which the AC50 is 10.6 µM. With `O=C(N/N=C/c1cc([N+](=O)[O-])ccc1O)c1cccc2cc[nH]c12` the figure was 6.89 µM.

As for `O=C1C(Nc2ccccc2)=C/C(=N/S(=O)(=O)c2cccs2)c2ccccc21`, the concentration at half-maximal activity (AC50) is 2.07 µM. For the compound `CCCOc1ccc(CSc2nc3ccccc3[nH]2)cc1`, the concentration at half-maximal activity (AC50) was 5.41 µM.

In the case of `Cc1cc(N2CCCC2=O)cc(C)c1S(=O)(=O)NCCOc1ccc(C(C)(C)C)cc1`, the concentration at half-maximal activity (AC50) was 3 µM. With `O=C(NNC(=O)c1ccccc1O)c1ccc(Cl)c(S(=O)(=O)N2CCc3ccccc32)c1` the figure was 7.82 µM; with `COC(=O)c1nc(-c2ccc3c(n2)C(=O)C(N)=C(OC)C3=O)c(N)c(-c2ccc(OC)c(OC)c2O)c1C`, 6.46 µM. Consider `CCCCNc1c(-c2cccc(-c3ccc(OC)cc3)c2)nc2ccc(C)cn12`, for which the AC50 was 7.32 µM. With `O=C1C(=O)c2ccc(-c3ccccc3)cc2-c2ccccc21` the figure was 1.1 µM. Turning to `O=C(Nc1ccc(Cl)cc1)Nc1nnc(CSCc2ccc(Cl)cc2)s1`, the half-maximal activity concentration (AC50) is 6.74 µM. To `Oc1cc(-c2ccc(N3CCCCC3)nc2)cc2cccnc12` belongs 7.31 µM; to `N=c1c2c(n(Cc3ccc(Br)cc3)c3c1CCC3)CCCC2`, 3.04 µM. With `S=c1[nH]nc(-c2cc(-c3ccccc3)n[nH]2)n1/N=C/C(Br)=C/c1ccccc1` the figure was 8.81 µM.

In the case of `NC(=O)c1ccc(N2CCN(S(=O)(=O)c3cccs3)CC2)c([N+](=O)[O-])c1`, the AC50 was 6.36 µM. Take `C/C(=N\NC(=O)c1nnn(-c2nonc2N)c1-c1ccccc1)c1ccccc1O`: the AC50 was 2.17 µM.

On to `Cn1cccc1C1C=C(c2ccc(C(C)(C)C)cc2)Nc2ncnn21` (stereo not drawn), for which the AC50 was 3.2 µM. With `Oc1c(CN2CCN(c3ccccc3)CC2)cc(Br)c2cccnc12` the figure was 5.87 µM.

Regarding `CC(=O)NC(c1cccs1)c1cc([N+](=O)[O-])c2cccnc2c1O` (stereo not drawn), the AC50 was 10.9 µM. Regarding `O=C(NCc1cccnc1)c1ccc(NC(=O)c2ccc(Br)cc2)cc1`, the AC50 was under 0.195 µM. Consider `CCc1ccc(Nc2n[n+](-c3ccccc3)c(-c3c(Cl)cccc3Cl)s2)cc1`, for which the concentration at half-maximal activity (AC50) was 4.08 µM. As to `C#CCOCCOCCOCCNc1nc(N2CCN(C(=O)CCCCCCCCCCNC(=O)[C@H]([C@@H](C)CC)n3cc(CCCCCN)nn3)CC2)nc(N2CCN(C(=O)CCCCCCCCCCNC(=O)[C@@H]([C@H](C)O)n3cc(C)nn3)CC2)n1`, the AC50 is 6.55 µM. To `CC(C)C(=O)NC(=S)/C=C1/N(C)c2ccccc2C1(C)C` belongs 7.7 µM.

Regarding `CN(C)c1nc(N/N=C/c2ccccc2O)nc(Nc2ccc(F)cc2)n1`, the half-maximal activity concentration (AC50) is 11.3 µM. With `CCn1c(-c2ccc(C)cc2)nn(CC(=O)NCCc2ccccc2)c1=S` the figure was 7.22 µM.

On to `CCSc1ccc(NC(=O)c2cccnc2)cc1`, for which the AC50 is 11.1 µM. With `C=CCNC(=S)N/N=C(\C)c1ccccn1` the figure was 1.22 µM; with `CCCCCCCCn1ccc(=N)cc1`, 0.65 µM. With `CC1CCC(C(C)C)C(OC(=O)Cn2c(-c3ccc(F)cc3)[n+](C)c3ccccc32)C1` (stereo not drawn) the figure was 4.49 µM; with `FC(F)(F)c1cnc(NNC(=S)Nc2ccc(Cl)cc2)c(Cl)c1`, 6.99 µM. Turning to `C#CCOCCOCCOCCNc1nc(N2CCN(C(=O)CCCCCCCCCCNC(=O)Cn3cc(CCCCCN)nn3)CC2)nc(N2CCN(C(=O)CCCCCCCCCCNC(=O)[C@H]([C@@H](C)CC)n3cc(CCCCN=C(N)N)nn3)CC2)n1`, the half-maximal activity concentration (AC50) was 8.89 µM. Turning to `CCOc1ccc(/C=N/NC(=O)c2[nH]ncc2Br)c(O)c1`, the AC50 is 3.66 µM. With `O=C(NCCCn1ccnc1)c1ccc(-c2ccccc2)cc1` the figure was 8.12 µM; with `CCc1ccc2c(c1)C1(C(=O)N2)N2CCCC2C(C(=O)c2ccc3ccccc3c2)C12C(=O)Nc1ccccc12` (stereo not drawn), 7.76 µM; with `CC1CN(S(=O)(=O)c2ccc(C(=O)NCCCn3ccnc3)cc2)CC(C)O1` (stereo not drawn), 1.39 µM. `C=CC[n+]1c(/C=C2\C=Cc3cc(C)ccc3N2CC)ccc2ccccc21`: the AC50 is under 0.195 µM. To `CC(C)C(=O)NC(c1cccs1)c1cc([N+](=O)[O-])c2cccnc2c1O` (stereo not drawn) belongs 9.51 µM; to `O=[N+]([O-])c1cc(CN2CCN(c3ccccc3)CC2)c(O)c2ncccc12`, 3.1 µM. For `COC(=O)c1cc(O)cc(OC)c1Oc1cc(C)cc(O)c1C(=O)O`, the concentration at half-maximal activity (AC50) was 5.37 µM. As to `O=C(Nc1nc2ccc([N+](=O)[O-])cc2s1)c1ccc(S(=O)(=O)N2CCCc3ccccc32)cc1`, the AC50 is 2.63 µM. With `O=C(c1ccccc1)c1c2c(cc3sc4ccccc4[n+]13)-c1cccc3cccc-2c13` the figure was 2.26 µM; with `COc1cc(CSc2nnnn2-c2ccc(C)cc2)cc(OC)c1OC`, 4.46 µM; with `COc1ccc(-n2cc(-c3ccc(OC(F)F)cc3)[n+]3c2CCCCC3)cc1`, 2.07 µM. `COc1ccc(-c2sc3ccccc3c2-c2ccc(OCCN(C)C)cc2)cc1`: the concentration at half-maximal activity (AC50) is 7.12 µM.

For `Cc1ccc(NC(=O)C2CCN(S(=O)(=O)c3ccc(N4CCCC4=O)cc3)CC2)cc1Cl`, the AC50 was 2.37 µM. With `CCC(=O)NC(c1cc(Cl)c2cccnc2c1O)C(C)C` (stereo not drawn) the figure was 7.3 µM; with `N#C/C(=C\c1ccc([N+](=O)[O-])o1)c1nc2ccccc2[nH]1`, 4.09 µM. `CC(C)(C)c1ccc(CSc2cnn(C(C)(C)C)c(=O)c2Cl)cc1`: the concentration at half-maximal activity (AC50) was under 0.195 µM.

Take `Nc1c(Cl)ncnc1N/N=C/c1ccccn1`: the AC50 was 2.07 µM. To `Oc1c(Br)cc(Br)cc1/C=N/NC(=S)N[C@H]1CC2C=CC1C2` (stereo partly drawn) belongs 12.1 µM. With `Cc1ccc(-n2c(Cl)c(Cl)nc(Cl)c2=O)cc1` the figure was 6.66 µM; with `CCN(CC)S(=O)(=O)c1ccc(NC(=O)Nc2cccc(C(F)(F)F)c2)cc1`, 8.02 µM; with `COc1cc(OC)c2cc(C(=O)N/N=C/c3ccccc3O)[nH]c2c1`, 8.48 µM. Turning to `O=C(Nc1ccc(N2CCN(Cc3ccccc3Cl)CC2)cc1)c1cccnc1`, the half-maximal activity concentration (AC50) is 5.98 µM. Take `CC(C)C[C@H]1CN=C(Nc2ccccc2)N1CC1CCC(C(C)(C)C)CC1` (stereo partly drawn): the AC50 was 8.6 µM. With `COc1ccc2c(c1)N(C)/C(=C/c1cccc[n+]1C)S2` the figure was 1.49 µM.

For the compound `Cc1cc(C)n(-c2nc(NCCO)c3c4c(sc3n2)CCCC4)n1`, the AC50 is > 26 µM (inactive).

As for `Cc1c(C(=O)Nc2nc(-c3ccccn3)cs2)oc2ccccc12`, the AC50 is 17.4 µM. On to `COc1ccc(CNCCC(c2ccccc2)c2ccc3c(c2)OCO3)cc1` (stereo not drawn), for which the concentration at half-maximal activity (AC50) is 15.2 µM.

In the case of `CCOC(=O)C1CCCN(S(=O)(=O)c2ccc(S(=O)(=O)N(CC)CC)cc2)C1` (stereo not drawn), the half-maximal activity concentration (AC50) is 3.8 µM. To `Cn1c(SCC(=O)N/N=C/c2ccc([N+](=O)[O-])s2)nnc1-c1ccc(Cl)cc1` belongs 12.1 µM; to `COc1cccc(N=Nc2ccc3cccnc3c2O)c1`, 6.8 µM. Turning to `Cc1nnc(N/N=C/c2ccccn2)[nH]c1=O`, the half-maximal activity concentration (AC50) was 5.46 µM.

As for `COc1ccc(-c2nn(-c3ccccc3)cc2/C=N/Nc2ccc3ccccc3n2)cc1OC`, the AC50 was 7.19 µM. Turning to `O=C(c1cc(-c2cccc(Cl)c2)nc2ccccc12)N1CCN(c2ccccn2)CC1`, the AC50 was 12.4 µM.

Regarding `CN(c1ccccc1)S(=O)(=O)c1ccc(NC(=O)c2nc(S(C)(=O)=O)ncc2Cl)cc1`, the AC50 was 7.32 µM. Turning to `C#Cc1ccc([C@@H]2C=C(C(=O)N3CCN(Cc4ccccc4)CC3)O[C@H](OCCCCO)C2)cc1`, the half-maximal activity concentration (AC50) is 2.13 µM. With `N=c1ccn(CC(=O)c2ccc(-c3ccccc3)cc2)cc1` the figure was 1.94 µM.

For `O=C(NCCCn1ccnc1)c1ccc(N2CCCCCC2)c([N+](=O)[O-])c1`, the half-maximal activity concentration (AC50) was 8.09 µM. To `O=[N+]([O-])/C=C/c1ccc2c(ccn2Cc2ccccc2)c1` belongs 7.72 µM; to `CCCCC1CCC(C(=O)N(CC(C)C)c2c(N)n(Cc3ccccc3)c(=O)[nH]c2=O)CC1` (stereo not drawn), 6.87 µM. Consider `CCCCC(CC)CN1C(=O)/C(=C/c2ccncc2)SC1=S` (stereo not drawn), for which the AC50 was > 26 µM (inactive).

As to `CCCNC(=O)c1ccc2c(=O)c(O)c(-c3cccc(Br)c3)[nH]c2c1`, the concentration at half-maximal activity (AC50) is 4.63 µM.

For `COc1ccc(CNC(=O)c2c(C)oc3c2C(=O)c2ccccc2C3=O)cc1`, the concentration at half-maximal activity (AC50) was 7.42 µM. On to `O=S(=O)(c1cccs1)N1CCN(CC(O)COc2cc(Cl)ccc2Cl)CC1` (stereo not drawn), for which the AC50 is 13.3 µM. To `CCN(CC)S(=O)(=O)c1cccc(NC(=O)Nc2cccc(C(F)(F)F)c2)c1` belongs 7.13 µM. For `Cc1ccccc1/C=C/C(=O)c1ccc([N+](=O)[O-])o1`, the concentration at half-maximal activity (AC50) is 5.07 µM. To `CCN1/C(=C\C=C\C2=[N+](CC)c3ccccc3C2(C)C)C(C)(C)c2ccccc21` belongs under 0.195 µM. For the compound `COc1ccc(NC(=O)/C(Cl)=C(/Cl)S(=O)Cc2ccccc2)cn1` (stereo not drawn), the AC50 is 2.05 µM.

`O=C(N/N=C/c1ccc(O)cc1O)c1ccc(NC(=O)C2CCCCC2)cc1`: the concentration at half-maximal activity (AC50) was 13 µM.

Turning to `CCN(CC)CCNc1ncnc2c1sc1nc(N3CCOCC3)c3c(c12)CC(C)(C)SC3`, the AC50 is 14.2 µM. To `c1ccc2c(CNC3CCCCC3)c[nH]c2c1` belongs 6.79 µM; to `Oc1ccc2ccccc2c1/C=N/Nc1nnc(-c2ncc[nH]2)c2ccccc12`, 3.39 µM. With `CCCCC(=O)NC(c1ccc(Cl)cc1)c1ccc2cccnc2c1O` (stereo not drawn) the figure was 1.35 µM; with `COc1ccccc1C(CCNCc1ccc(N(C)C)cc1)c1ccc(OC(C)C)cc1` (stereo not drawn), 9.78 µM; with `CCOC(=O)c1c(CSc2nc(C)cc(C)c2C#N)n(C)c2cc(Br)c(OC(C)=O)cc12`, 3.73 µM.

On to `COc1ccc(Cn2c(-c3ccc(C)cc3)c[n+]3ccccc23)cc1`, for which the half-maximal activity concentration (AC50) was 5.23 µM.

With `O=C(/C(N=Nc1cccc([N+](=O)[O-])c1)=C(/O)c1ccc(Br)cc1)C(F)(F)F`, the half-maximal activity concentration (AC50) was 6.66 µM. With `COc1ccc(/C=C2\CN(Cc3ccccc3)C/C(=C\c3ccc(OC)c(O)c3)C2=O)cc1O` the figure was 4.75 µM.
